Results filed as inconclusive are left out. Calls of active or inactive are those of the source. How the calls were made is not given here; tested in MIN6 cells.
Assay: cell-permeable autofluorescent compounds in GFP channel, dose response, artefact control, imaging, high-content imaging (AID 2124);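 further: cells exposed to compound for 48 hours before fixing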
Conditions: cells, GFP-channel autofluorescence, high-content imaging, at 10 µM; for z-score: stronger effect = higher value

Structure (SMILES)	z-score	cell count [cells]
C=CCn1c(=NC(=O)c2cc(-c3cccs3)nc3ccccc23)sc2cc(S(N)(=O)=O)ccc21	-0.33 (inactive)	2770
Nc1c(C(=O)C2CC2)sc2nc(-c3ccccc3)cc(C(F)(F)F)c12	0.39	3090
CCN1CCc2c(sc(NC(=O)Nc3ccc(Cl)c(Cl)c3)c2C(N)=O)C1	8.59	1910
O=S(=O)(Cc1ccc(Cl)cc1)c1ccccc1-c1nnc(-c2ccccc2)o1	-0.39 (inactive)	3320
C1=C(c2ccccc2)Nc2nnnn2C1	-0.26 (inactive)	3170
CC(C)CNC(=O)CSc1nnc(-c2cccc(S(=O)(=O)N3CCCCC3)c2)o1	-0.39 (inactive)	2900
CCN1CC=C2C(C#N)=C(N)C(C#N)(C#N)[C@H](c3cccc(OC)c3OC)[C@H]2C1	0.28	2790
Cc1nc2c(oc3ccccc32)c(=O)o1	-0.33 (inactive)	3020
COc1ccc(/C=C(\C#N)C(=O)OCC(=O)Nc2c(C)cccc2C(C)C)cc1	-0.39 (inactive)	2950
COc1ccccc1CC(=O)NC1CC(C)(C)NC(C)(C)C1	-0.33 (inactive)	2940
CCOc1ccc(NC(=S)N2CCC(N(C)CC3CCCO3)CC2)cc1 (centres undefined)	-0.33 (inactive)	2900
CCCCc1ccc2[nH]cc(CCN)c2c1	-0.38 (inactive)	2320
O=C(NCCc1csc(-c2ccccc2)n1)c1ccccc1F	-0.25 (inactive)	3010
CCOc1ccc(NC(=O)C2CCC(C)(C(=O)O)C2(C)C)cc1 (centres undefined)	-0.39 (inactive)	3170
Cc1cc(C)c(C#N)c(SCC2COc3ccccc3O2)n1 (centres undefined)	-0.33 (inactive)	3670
CC(C)SC1=NC(C)(C)C=C(/C=C/c2ccc(Cl)cc2Cl)N1	-0.36 (inactive)	2940
Nc1c(C(=O)N/N=C/c2cccnc2)oc2nc(-c3ccco3)cc(-c3ccco3)c12	-0.32 (inactive)	2960
CC(C)C(c1nnnn1C1CCCC1)N1CCOCC1 (centres undefined)	-0.33 (inactive)	3180
CCCCC1=CC2=C(c3ccco3)C(=O)C(C)(OC(=O)c3ccc(OC)cc3)C(=O)C2=CN1CC(C)C (centres undefined)	-0.39 (inactive)	2870
COC(CNC(=O)c1ccc(Cn2c(=S)[nH]c3cc4c(cc3c2=O)OCO4)cc1)OC	-0.33 (inactive)	3340
CC(C)=NNc1nc2c(c(=O)n(C)c(=O)n2C)n1CCc1ccccc1	-0.39 (inactive)	3610
CCS(=O)(=O)c1ccc2oc(SCC(=O)NC3CCCC(C)C3C)nc2c1 (centres undefined)	-0.26 (inactive)	2950
O=C1C2C3C=CC(C3)C2C(=O)N1CCc1ccccc1 (centres undefined)	-0.33 (inactive)	3430
CCN(CC)c1ccc2cc(S(=O)(=O)c3ccc(Cl)cc3)c(=O)oc2c1	-0.31 (inactive)	2590
COc1ccc(C2C=C(c3cccs3)Nc3nc(CCCO)nn32)cc1 (centres undefined)	-0.38 (inactive)	2650
Cn1c(=O)c(N)c2c3c(c(Br)ccc31)C(=O)c1ccccc1-2	0.12	3210

Structure (SMILES)	z-score	cell count [cells]
CCc1ccccc1N1C(=O)/C(=C/c2ccc(N3CCN(C)CC3)o2)C(=O)NC1=S	-0.35 (inactive)	2580
CN1C2CCC1/C(=C/c1cccn1C)C(=O)/C2=C\c1cccn1C	-0.29 (inactive)	3280
NC(=O)c1cc2ccc(O)cc2oc1=NCc1ccccc1	-0.33 (inactive)	3140
Cc1nn(-c2ccccc2)c(C)c1NC(=O)CCl	-0.33 (inactive)	1910
CC1CCN(S(=O)(=O)c2ccc3c(c2)c(=O)c(C(=O)N2CCCCC2)cn3C)CC1	-0.33 (inactive)	2850
COC1=CCC2([N+](=O)[O-])CN(CCO)CC1([N+](=O)[O-])C2 (centres undefined)	-0.33 (inactive)	3440
O=C1S/C(=C\c2ccc(N3CCOCC3)o2)C(=O)N1Cc1c(F)cccc1Cl	2.04	1540
N#Cc1c(-c2ccco2)cc(C2CC2)nc1SCC(=O)c1ccccc1	-0.27 (inactive)	3090
COc1ccccc1NS(=O)(=O)c1cc([N+](=O)[O-])ccc1N/N=C/c1sc(N2CCOCC2)nc1-c1ccccc1	0.22	2550
CCn1ncc(Br)c1C(=O)Nc1sc2c(c1C(N)=O)CCC2	-0.39 (inactive)	3350
O=C1S/C(=C/c2ccc(N3CCOCC3)o2)C(=O)N1Cc1ccc(F)cc1	0.51	3300
CCOc1ccc(C2C(C(=O)O)c3ccccc3C(=O)N2CCN2CCOCC2)cc1 (centres undefined)	-0.39 (inactive)	3370
Cc1ccccc1-n1ncc2c(SCC(=O)NCc3cccs3)ncnc21	-0.38 (inactive)	2670
CCC(C)N1C(=O)/C(=C/c2c(NCCCOC(C)C)nc3c(C)cccn3c2=O)SC1=S (centres undefined)	1.19	2350
C=CCN1C(=O)/C(=C/C=C2/N(CC)c3ccc(S(=O)(=O)N(C)C)cc3N2CC)SC1=S	0.26	2740
CCN(CC)c1ccc(/C=C2\SC(=O)N(C(C)C)C2=O)o1	0.48	941
CCN1/C(=C/c2ccc3cc(C)ccc3[n+]2CC)Sc2ccccc21	1.64	190
CCOC(=O)c1c(-c2ccc(C)cc2)csc1NC(=O)/C(C#N)=C/c1ccc(O)c(OC)c1	-0.3 (inactive)	2890
CCCCN1C(=O)/C(=C/C=C2\Oc3ccccc3N2CC)SC1=S	1.42	3450
NS(=O)(=O)c1ccc(NC=C2C(=O)OC3(CCCCC3)OC2=O)cc1	-0.25 (inactive)	3080
O=C1/C(=N\S(=O)(=O)c2cccs2)C([n+]2cccc(Cc3ccccc3)c2)=C([O-])c2ccccc21	-0.31 (inactive)	307
Cc1cccc(NC(=O)Nc2ccc(C#N)cc2)n1	-0.32 (inactive)	2800
N#C/C(=C\c1ccc(N2CCOCC2)o1)c1nc2ccccc2[nH]1	0.96	2400
Cc1cc(C)cc(-n2c(=O)c3sccc3n(CC(=O)NCc3ccco3)c2=O)c1	-0.39 (inactive)	3120
Nc1c(C(=O)Nc2nccs2)sc2nc(-c3cccs3)cc(C(F)(F)F)c12	0.39	2940
COc1cccc(C(=O)CN2C(=O)C(C)(C)Oc3ccc(C(=O)N4CCCCCC4)cc32)c1	-0.33 (inactive)	3680

Structure (SMILES)	z-score	cell count [cells]
Nc1c(C(=O)C2CC2)sc2nc(-c3cccs3)cc(C(F)(F)F)c12	0.95	2750
CC(=O)c1sc2nc(-c3cccs3)cc(C(F)(F)F)c2c1N	0.17	3260
O=C(NN=C1CCN(Cc2ccccc2)CC1)c1cccc(S(=O)(=O)Nc2ccccc2Cl)c1	-0.38 (inactive)	3200
CCOC(=O)Cn1c2ccc(F)cc2c2nc(C)sc21	-0.39 (inactive)	2900
CCOc1ccc(CNC(=O)CCn2c(=O)oc3ccccc32)cc1	-0.38 (inactive)	3060
COc1cc(C)nc(N2CCCC(C(=O)Nc3cccc(Cl)c3C)C2)n1 (centres undefined)	-0.38 (inactive)	3090
O=c1[nH]c2ccccc2nc1/C=C/c1ccc(F)cc1	-0.32 (inactive)	3060
Cc1c(C(c2ccc([N+](=O)[O-])cc2)c2c(C)n(C)n(-c3ccccc3)c2=O)c(=O)n(-c2ccccc2)n1C	-0.39 (inactive)	3040
Cc1ccc(-c2cc(N)n(-c3ccccc3)n2)cc1	-0.33 (inactive)	3090
C=CCN1C(=O)/C(=C/c2ccc(N3CCOCC3)o2)C(=O)NC1=S	-0.32 (inactive)	3270
CCOC(=O)c1sc(NC(=O)c2sccc2C)cc1C	-0.39 (inactive)	3300
CCC(C)(C(=O)NC1CCCC1)N(C(=O)CNC(C)=O)c1ccccc1 (centres undefined)	-0.39 (inactive)	2960
CC(=O)Oc1ccc2c(c1)Oc1cc(OC(C)=O)ccc1C21OC(=O)c2ccccc21	4.32	3270
Cc1cccc(OCCNc2nc3c(c(=O)n(C)c(=O)n3C)n2C)c1	-0.33 (inactive)	3060
CCCOc1cc(N(CC)CC)ccc1/C=C(/C#N)c1nc2ccc(C)cc2[nH]1	0.73	1370
Cc1ccc(-n2c3c(c(=O)[nH]c2=O)C(C(F)(F)F)(C(F)(F)F)NC(=O)N3)cc1	-0.33 (inactive)	2850
CCN1/C(=C/c2cc[n+](CCCS(=O)(=O)[O-])c3ccccc23)Sc2ccccc21	-0.24 (inactive)	1390
CCN(CC)c1ccc2cc(-c3nc4ccccc4[nH]3)c(=O)oc2c1	5.37	1680
OC1(c2cn(Cc3ccccc3)nn2)CCCCC1	-0.33 (inactive)	3100
CC(C)(C)C(=O)c1sc2nc(-c3cccs3)cc(C(F)(F)F)c2c1N	-0.22 (inactive)	2740
COc1cc2cc(C)c3nnc(SCC(=O)Nc4cc(C)on4)n3c2cc1OC	-0.33 (inactive)	2840
O=C(c1cccs1)c1no[n+]([O-])c1C(=O)c1cccs1	-0.31 (inactive)	586
CCOC(=O)c1ccc(NC(=O)COc2ccc(S(=O)(=O)NC(C)CC)cc2)cc1 (centres undefined)	-0.33 (inactive)	3160
CCn1c(SCC(=O)c2c[nH]c3ccccc23)nc2cc(S(=O)(=O)N3CCOCC3)ccc21	-0.36 (inactive)	3200
CCC(=O)OCC(=O)c1c(N)n(Cc2ccccc2)c(=O)n(C)c1=O	-0.33 (inactive)	2890

From PubChem BioAssay AID2124 (Sanford-Burnham Center for Chemical Genomics, 2009)
